Patent US10987357B2, “Aerosolized fluoroquinolones and uses thereof” (Horizon Orphan, LLC, priority 2005, dated 2021)
Converted amounts (≈) assume the structure as drawn. Like-named read-outs stand apart in the source and are kept apart here.

How the values were obtained:
PAM1020 [1] = experiment: microbe, parasite or virus in culture; assay type: cell-based, P. aeruginosa; conditions: Pseudomonas aeruginosa, read-out: Levofloxacin MIC
Description: (§1) . Those were chosen based on what is known about conditions and growth of PA in a cystic fibrosis (CF) lung. Four isogenic strains of P. aeruginosa were used for these experiments (Table 2).

PAM1032 [2] = assay type: cell-based, P. aeruginosa; conditions: PAM1032, genotype nalB
Description: as §1

PAM1582 [3] = experiment: Levofloxacin MIC of hollow fiber test strain; assay type: cell-based; conditions: Pseudomonas aeruginosa, read-out: Levofloxacin MIC
Description: Pseudomonas aeruginosa PAM1032 and PAM1582. […]

PAM1020 [4] = experiment: Time-kill, exponentially grown cells (Experiment 1); assay type: cell-based, P. aeruginosa; conditions: 64 ug/ml ([…] MIC), 10 minutes
Description: At appropriate times, 1 ml of each exposure culture was centrifuged for 2 minutes, the pellet was washed twice with 1 ml of drug-free MHB, and re-suspended in 1 ml of MHB. The viable cell numbers were enumerated by plating serially diluted samples (in duplicates) on MHB plates by the drop (10 ul) plating method. The limit of detection was 100 CFU/ml. Killing is reported as the log reduction calculated relative to cell count at the time of initiation of antibiotic exposure. Relative antibiotic concentrations (relative to MIC of the corresponding strains) are used.

PAM1032 [5] = assay type: cell-based, P. aeruginosa
Description: Overnight cultures were grown aerobically overnight in Mueller-Hinton Broth and next diluted 1:10000 in MEM which filled growth flasks to the very top. Cultures were grown without shaking to OD˜0.3 at 37° C. […] Other than decreased aeration, antibiotic concentration, time of exposure, and determination of viable cell counts were the same as in Experiments 1 and 2.

[6] = tested on: colony biofilms of PAM1032; assay type: cell-based, P. aeruginosa; conditions: 10 minutes of exposure
Description: The viable cell numbers were enumerated by plating serially diluted samples (in duplicates) on MHB plates by the drop (10 ul) plating method.

PAM1032 [7] = experiment: In vitro pharmacodynamic (hollow fiber) model of infection; assay type: cell-based, Pseudomonas aeruginosa; conditions: for reduction in bacterial counts: half-life 10 minutes
Description: (§2) The in vitro pharmacodynamic model consists of a central (analogous “serum” compartment) and peripheral (“extravascular”) compartment. The peripheral compartments consist of artificial capillary units (Unisyn, Hopkinton, Mass.) arranged in series with the central compartment. Each capillary unit has a bundle of small semi-permeable fibers with a molecular size retention of ca. 10,000 MW to allow passage of nutrients but not bacteria. The entire system is set up in a dry heat incubator adjusted to 37° C.
(§3) Both the central and peripheral compartments were filled with Mueller-Hinton broth. Each peripheral compartment (capillary unit and tubing) contained ca. 23 ml of growth medium.
(§4) Bacteria were introduced into the peripheral chamber of the model and allowed to grow for 2 hours prior to the first “dose” of drug. Drug doses were administered into the central compartment and pumped to peripheral chambers by a peristaltic pump. Concentrations in the model declined according to first order elimination (half-life) by dilution of the central compartment with drug free medium introduced by an additional peristaltic pump adjusted to the desired clearance.
(§5) Samples (0.3 ml) were collected from peripheral compartments at various intervals for determination of drug and bacterial concentrations. Samples were collected from the peripheral compartments and assayed for drug concentrations by HPLC.
(§6) Of the resulting dilution, 2.3 ml was injected into each peripheral chamber of the hollow-fiber bioreactors (Unisyn, Hopkinton, Mass.).

PAM1582 [8] = assay type: cell-based, Pseudomonas aeruginosa; conditions: for reduction in bacterial counts: half-life 10 minutes
Description: as §2, §3, §4, §5, §6

[9] = in vivo
Description: In the second test, the tolerability and taste of a small aerosol sample from a 0.5 ml aliquot of the test formulation was determined in a single healthy human volunteer, following nebulization in a PARI eFlow nebulizer (Table 12).
The tolerability and taste of the drug during a very brief administration period and for a period of 10 minutes post administration were monitored. Tolerability parameters were of the following types: (i) cough, cough sensation, or sneezing (ii) irritation, burning or tightness of throat, (ii) irritation or runniness in nasal passages or eyes, (iii) irritation, burning or tightness of the lungs or shortness of breadth, and (iv) dizziness, headache, nausea or other systemic effects.

[10] = Rat pharmacokinetic model (IV vs microspray aerosol, intratracheal); assay type: in vivo, rats; conditions: 10 mg/kg; for AUC: epithelial lining fluid (ELF)
Description: […] Blood samples are taken at various times over 3 hours to determine the plasma pharmacokinetic parameters. […] The plasma and tissue concentrations are determined by an HPLC method and the data are then fit using WinNonlin.

physchem [11] = experiment: physchem
Description: This solution was titrated with 1 N HCl. Measured aliquots of HCl were added and the pH recorded after each addition. Titration was continued till a pH of 1.
Vep volume of titrant added till the equivalence point; [OH^−]=hydroxide ion concentration=Kw/[…]; [H^+]=hydronium ion concentration=10^−pH.

physchem [12] = experiment: physchem; remark: listed apart in the source
Description: The buffers used were HCL (pH 1,2), acetate (pH 4,5), phosphate (pH 6,7,8) and borate (9,10).

[13] = in vivo; cited from earlier work
[14] = tested on: P. aeruginosa strain PAM 1723; experiment: Mouse lung infection efficacy model; conditions: Pseudomonas aeruginosa, PAM1723, in Mus musculus
Description: The inoculum is adjusted to ca. 5×10^6 CFU/ml by correlation of absorbance at 600 nm with predetermined plate counts. […] On day 5, mice are infected by an intratracheal instillation of 0.05 ml of inoculum while under isoflurane anesthesia (5% isoflurane in oxygen running at 4 L/min). […] Mice are sacrificed 1 and 4 hours after treatment, their lungs removed, homogenized and plated to determine colony counts.

[15] = 4 day GLP inhalation toxicology study
[16] = 28-day GLP inhalation toxicology study
[17] = 4 day non-GLP ascending dose inhalation toxicology study; conditions: 24 hours after the last dose
[18] = Tolerability of aerosol levofloxacin in a healthy human subject

Q: What does the source list for `C[C@H]1COc2c(N3CCN(C)CC3)c(F)cc3c(=O)c(C(=O)O)cn1c23` [Levofloxacin, levofloxacin]?
A: MIC (PAM1020 [1]): 0.25 µg/mL (≈ 0.692 µM); Levofloxacin MIC (PAM1032 [2]): 1 µg/mL; Levofloxacin MIC (PAM1032 [2]; listed as levofloxacin): 1.0 µg/mL; MIC (PAM1582 [3]): 32 µg/mL; maximum killing, decrease in viable cell counts (PAM1020 [4]): 5.5 log; stronger killing at longer exposure intervals (difference) (PAM1032 [5]): less than 1 log; maximum observed bactericidal activity against biofilms [6]: 99%; time to maximum bactericidal effect (PAM1032 [7]; Cmax 600 ug/ml): 30 min; reduction in bacterial counts (PAM1032 [7]; Cmax 600 ug/ml): 5 log; time to maximum bactericidal effect (PAM1032 [7]; Cmax 1000 ug/ml): ≤ 10 min; reduction in bacterial counts (PAM1032 [7]; Cmax 1000 ug/ml): 5 log; bacterial reduction (PAM1032 [7]; Cmax of both 600 and 1000 ug/ml, strain with MIC of 1 ug/ml): ≤ 99.9999%; bacterial reduction (PAM1582 [8]): up to 99.99%; reduction in bacterial counts (PAM1582 [8]; Cmax 600 ug/ml): 3 log; reduction in bacterial counts (PAM1582 [8]; Cmax 1000 ug/ml): 4 log; bacterial reduction (PAM1582 [8]; listed as levofloxacin): up to 99.999%; Aerosol Tolerability and Taste [9]: chemical taste, somewhat bitter,; F, % from Lung vs. IV ([10]; IT): 86%; AUC ([10]; rat, inhaled or intranasal, IT): 12100 ng·h/mL; AUC ([10]; rat, iv): 10500 ng·h/mL; half-life ([10]; rat, in vivo, inhaled or intranasal, IT, read-out: Serum t1/2 (converted)): 24 min; AUC(0-inf) ([10]; rat, serum, inhaled or intranasal, IT): 3280 ng·h/mL; acidic pKa (physchem [11]): ~1.6; pKb (physchem [11]): 7.7; pKa (physchem [11]; acidic pKa): < 2; pKa (physchem [11]; pKa): 6.3; pKa (physchem [11]; pKa of the basic site as stated in text): ~6.8; pKa (physchem [12]): 5.91; penetration into lung tissues [13]: penetrates well into lung tissues; log reduction at 25 mg/kg ([14]; 1 h, read-out: DeltaLOG CPU 1 hr, route IT, dose 25 mg/kg, 1 hr post-drug administration): 2.48; log reduction at 25 mg/kg ([14]; 4 h, read-out: DeltaLOG CPU 4 hr, route IT, dose 25 mg/kg, 4 hr post-drug administration): 1.45; log reduction at 25 mg/kg ([14]; ip, 1 h, read-out: DeltaLOG CPU 1 hr, route IP, dose 25 mg/kg, 1 hr post-drug administration): 1.4; survival ([15]; 4 day treatment period): all animals survived; necropsy ([15]; after the last dose): did not show any findings; survival ([16]; 28 day treatment period): all animals survived; necropsy ([16]; after the last dose): dose related squamous cell hyperplasia of the larynx; necropsy [17]: did not show any findings; tolerability of hypotonic solutions for inhalation ([18]; concentrations greater than 10 mg/ml): poorly tolerated; overall tolerability ([18]; first test): well tolerated; acute tolerability ([18]; second test: 4 ml of 18.75 mg/mL, Aerogen Small, estimated RDD 35 mg): very comparable to the first test; adverse effects in the throat, airway or lungs ([18]; third test: 4 mL of 18.75 mg/mL, PARI Large, estimated RDD ~55 mg): no adverse effects in the throat, airway or lungs
